Structures are written as SMILES.

One assay concerns the target DNA-PK kinase (Homo sapiens, UniProt P78527). Briefly: Inhibition of DNA-PK kinase activity (ADP-Glo). The class given is biochemical. The conditions noted are these: averaged values over all measurements on all batches; 150 μM ATP, 1 hour at 25° C. As for the experimental part: Inhibition of DNA-PK Kinase Activity Assay buffer was 50 mM Hepes pH 7.5 containing 0.1 mg/ml BSA (albumin from bovine serum), 50 μM DTT (dithiothreitol), 20 mM MgCl2 and 10 μg/ml calf thymus DNA (activation buffer). Kinase reaction was carried out in OptiPlate 384 plates (PerkinElmer 6007299). All compounds tested were dissolved in dimethyl sulfoxide (DMSO) and further dilutions were made in assay buffer. Final DMSO concentration was 1% (v/v). Pre-incubation consisted of compound (1% DMSO in control and blank wells) and 24 ng/well DNA-PK kinase to allow the compounds to bind the enzyme (with buffer in the blank wells) for 15 minutes; after this time 150 μM Adenosine-5′-triphosphate (ATP) and 0.2 μg/μl DNA-PK substrate were added to commence the kinase reaction. Incubations were carried out for 1 hour at 25° C. Kinase activity was determined by using ADP-Glo™ reagent from Promega according to the manufacturer's instructions. The light generated was measured using a luminometer (EnVision, PerkinElmer). Signal obtained in the wells containing blank samples was subtracted from all other wells and IC50 values were determined by fitting a sigmoidal curve to % inhibition of control versus Log10 compound concentration.
A general note: In ADP-Glo the light output rises with the ADP produced.
Usually IC50 stands for the midpoint of a concentration-inhibition curve. For the molecule `c1cnc2cc(N3CCOCC3)nc(N3CCNCC3)c2c1` [Example 95], inhibition was half-maximal at 5.44 µM (IC50). As for `c1cnc(CN2CCC3CN(c4nc(N5CCOCC5)cc5ncccc45)CC32)nc1` (stereo not shown) [Example 42], the midpoint of inhibition, the IC50, lay at 2.26 µM. `Cc1ccnc(NCC2CCN(c3nc(N4CCOCC4)cc4ncccc34)CC2)c1` [Example 134] returned an IC50 of 0.155 µM. Still for that read-out and setting: the result for `c1cnc(NC2CCCN(c3nc(N4CCOCC4)cc4ncccc34)C2)nc1` (stereo not shown) [Example 31] reads 0.492 µM; that for `c1cnc2cc(N3CCOCC3)nc(N3CCCCC3)c2c1` [Example 32], 0.523 µM. Still for that read-out and setting: next, `c1cnc2cc(N3CCOCC3)nc(OCC3CN(c4ncn[nH]4)C3)c2c1` [Parent compound 151]: 0.082 µM. `[2H]C1([2H])OC([2H])([2H])C([2H])([2H])N(c2cc3ncccc3c(O[C@H]3CC[C@@H](c4nc[nH]n4)CC3)n2)C1([2H])[2H]` [Example 65] returned an IC50 of 0.002 µM. On the same count and under the same terms, the result for `COc1cccnc1NCC1CCN(c2nc(N3CCOCC3)cc3ncccc23)CC1` [Example 137] reads 0.457 µM. The molecule `c1cnc(NCC2CCCN(c3nc(N4CCOCC4)cc4ncccc34)C2)nc1` (stereo not shown) [Example 36] had an IC50 of 0.949 µM. The same measure, in the same setting: next, `CC1(CNc2ncccn2)CCN(c2nc(N3CCOCC3)cc3ncccc23)C1` (stereo not shown) [Example 25]: 0.224 µM. `Fc1cnc(NCC2CCN(c3nc(N4CCOCC4)cc4ncccc34)CC2)nc1` [Example 104] showed an IC50 of 0.05 µM. In turn, `Fc1ccnc(NCC2CCN(c3nc(N4CCOCC4)cc4ncccc34)CC2)c1` [Example 132] yielded an IC50 of 0.082 µM. The same measure, in the same setting: the result for `c1cnc(N2CCC3CN(c4nc(N5CCOCC5)cc5ncccc45)CC32)nc1` (stereo not shown) [Example 17] reads 0.148 µM. Same read-out and setting: the result for `COc1ccc(COc2nc(N3CCOCC3)cc3ncccc23)cc1` [Example 53] reads 0.242 µM. In turn, `COc1ccnc(NCC2CCN(c3nc(N4CCOCC4)cc4ncccc34)CC2)n1` [Example 111] came in with an IC50 of 0.088 µM. Molecule `Oc1cnc2cc(N3CCOCC3)nc(O[C@H]3CC[C@@H](c4nccs4)CC3)c2c1` [Example 168] gave an IC50 of 0.005 µM. Same read-out and setting: next, `N#Cc1cnc(NCC2CCN(c3nc(N4CCOCC4)cc4ncccc34)CC2)nc1Cl` [Example 123]: 0.232 µM. Take `F[C@H]1CN(c2ncn[nH]2)CC[C@@H]1Oc1nc(N2CCOCC2)cc2ncccc12` [Example 156]: inhibition was half-maximal at 0.093 µM (IC50).

`CN1CC(CNc2nc(N3CCOCC3)cc3ncccc23)COC1=O` (stereo not shown) [Parent compound 150]: the midpoint of inhibition, the IC50, lay at 0.066 µM.

`c1cnc2cc(N3CCOCC3)nc(O[C@H]3CC[C@@H](c4ncc[nH]4)CC3)c2c1` [Example 75] displayed a concentration for half-maximal inhibition (IC50) of 0.005 µM.

The molecule `O=C(O)c1ccnc(NCC2CCN(c3nc(N4CCOCC4)cc4ncccc34)CC2)n1` [Example 110] gave an IC50 of 0.088 µM. Still for that read-out and setting: the result for `C[C@@H]1CN(c2ncn[nH]2)CC[C@@H]1Oc1nc(N2CCOCC2)cc2ncccc12` (single isomer, unassigned) [Parent compound 160] reads 0.493 µM; that for `CC(=O)Nc1ccnc(NCC2CCN(c3nc(N4CCOCC4)cc4ncccc34)CC2)n1` [Example 126], 0.676 µM. Same read-out and setting: next, `O=C(NC1CCN(c2nc(N3CCOCC3)cc3ncccc23)CC1)c1ncccn1` [Example 27]: 0.274 µM; `CC(C)(C)OC(=O)NCCC1CCN(c2nc(N3CCOCC3)cc3ncccc23)CC1` [Example 30]: 0.369 µM; `CC(C)(C)OC(=O)NCC1CCN(c2nc(N3CCOCC3)cc3ncccc23)CC1` [Example 33]: 0.532 µM.

As for `CC(C)(C)OC(=O)N1CCC(Oc2nc(N3CCOCC3)cc3ncccc23)CC1` [Example 48], half-maximal inhibition (IC50) required 0.328 µM. In the case of `C[C@H]1CN(c2cc3ncccc3c(O[C@H]3CC[C@@H](c4nc[nH]n4)CC3)n2)CCO1` [Example 68], the IC50 was found to be 0.048 µM. The same measure, in the same setting: next, `c1ccc(NCC2CCN(c3nc(N4CCOCC4)cc4ncccc34)CC2)cc1` [Example 138]: 0.501 µM. `Fc1cccnc1NCC1CCN(c2nc(N3CCOCC3)cc3ncccc23)CC1` [Example 135] registered an IC50 of 0.178 µM. For the molecule `CC(=O)NCC1CCN(c2nc(N3CCOCC3)cc3ncccc23)CC1` [Parent compound 140], the IC50 is 0.257 µM. The same measure, in the same setting: next, `c1cnc(N2CCC3(C2)CN(c2nc(N4CCOCC4)cc4ncccc24)C3)nc1` [Example 35]: 0.72 µM. For the molecule `c1cnc(N2CC3(CCN(c4nc(N5CCOCC5)cc5ncccc45)C3)C2)nc1` [Example 34], the IC50 worked out at 0.588 µM. The same measure, in the same setting: the result for `O=C(Nc1ncccn1)N1CCN(c2nc(N3CCOCC3)cc3ncccc23)CC1` [Parent compound 146] reads 0.232 µM.

Molecule `c1cnc2cc(N3CCOCC3)nc(OC3CCCCC3)c2c1` [Example 9] gave an IC50 of 0.468 µM. With `C[S+]([O-])[C@H]1CC[C@@H](Oc2nc(N3CCOCC3)cc3ncccc23)CC1` (mixture of isomers) [Example 83], the IC50 is 0.169 µM. On the same count and under the same terms, next, `c1cnc(NCCCOc2nc(N3CCOCC3)cc3ncccc23)nc1` [Example 7]: 0.415 µM; `c1cnc(N2CC3CN(c4nc(N5CCOCC5)cc5ncccc45)CC3C2)nc1` (stereo not shown) [Example 28]: 0.342 µM. For the molecule `OCc1ccnc(NCC2CCN(c3nc(N4CCOCC4)cc4ncccc34)CC2)n1` [Example 116], the IC50 worked out at 0.124 µM.

As for `CC1CN(c2ncn[nH]2)CCC1Oc1nc(N2CCOCC2)cc2ncccc12` (stereo not shown) [Parent compound 159], the IC50 came to 0.116 µM. The same measure, in the same setting: next, `c1cncc(C2CCCCN2c2nc(N3CCOCC3)cc3ncccc23)c1` (stereo not shown) [Example 85]: 2.03 µM; `c1cnc(N2CCC23CCN(c2nc(N4CCOCC4)cc4ncccc24)C3)nc1` (stereo not shown) [Example 29]: 0.345 µM. Same read-out and setting: next, `c1cnc2cc(N3CCOCC3)nc(N3CCC(c4ncc[nH]4)CC3)c2c1` [Example 86]: 0.223 µM. Regarding `CN(C)C(=O)N1CC(COc2nc(N3CCOCC3)cc3ncccc23)C1` [Parent compound 149], the IC50 turned out to be 0.244 µM.

As for `CN(C)CC1CCN(c2nc(N3CCOCC3)cc3ncccc23)CC1` [Parent compound 145], the IC50 was 3.44 µM. For `O=S(=O)(NCC1CCN(c2nc(N3CCOCC3)cc3ncccc23)CC1)c1ccc(F)cc1` [Example 142], inhibition was half-maximal at 0.808 µM (IC50).

On to `O=C(Nc1ncccn1)C1CCN(c2nc(N3CCOCC3)cc3ncccc23)CC1` [Example 26], for which inhibition was half-maximal at 0.226 µM (IC50). In the case of `Nc1ccnc(NCC2CCN(c3nc(N4CCOCC4)cc4ncccc34)CC2)n1` [Parent compound 139], the IC50 was found to be 0.126 µM.

`N#Cc1cc(Br)cnc1NCC1CCN(c2nc(N3CCOCC3)cc3ncccc23)CC1` [Example 125] registered an IC50 of 0.504 µM. On the same count and under the same terms, the result for `CS(=O)(=O)NCC1CCN(c2nc(N3CCOCC3)cc3ncccc23)CC1` [Parent compound 141] reads 0.37 µM; that for `Oc1cnc2c(Cl)c(N3CCOCC3)nc(O[C@H]3CC[C@@H](n4ccnc4)CC3)c2c1` [Parent compound 172], 0.242 µM; that for `c1cnc2cc(N3CCOCC3)nc(OC3CCNCC3)c2c1` [Example 89], 0.361 µM. The same measure, in the same setting: next, `c1cnc(NCCC2CCCN(c3nc(N4CCOCC4)cc4ncccc34)C2)nc1` (stereo not shown) [Example 23]: 0.211 µM; `NC(=O)N1CCC(Oc2nc(N3CCOCC3)cc3ncccc23)CC1` [Parent compound 147]: 0.34 µM. On the same count and under the same terms, next, `CC(C)(C)OC(=O)N1CCC2CN(c3nc(N4CCOCC4)cc4ncccc34)CC21` (stereo not shown) [Example 37]: 1.3 µM. For the molecule `COc1nc(NCC2CCN(c3nc(N4CCOCC4)cc4ncccc34)CC2)ncc1Cl` [Example 124], the IC50 came to 0.247 µM. Still for that read-out and setting: next, `c1cnc2cc(N3CCOCC3)nc(N3CCC(CNc4ccncc4)CC3)c2c1` [Example 136]: 0.34 µM.

The next assay concerns the target T1, Phospho-DNA-PK in FaDu Cells (Homo sapiens, UniProt P78527).
T1 construct: host or cells: FaDu
The assay can be described thus: Effect of compounds on phospho-DNA-PK in FaDu cells (MesoScale sandwich immunoassay). The note with it: 1 hour pre-incubation, 1 μg/ml Neocarzinostatin 2 hours, averaged values, read-out: MSD FaDu IC50. The class given is cell-based. The protocol:
Effect of Compounds on Phospho-DNA-PK in FaDu Cells
All compounds tested were dissolved in DMSO and further dilutions were made in culture medium. Final DMSO concentration was 0.3% (v/v). The human FaDu cells (ATCC) were cultured in MEM medium supplemented with Glutamax and 10% fetal calf serum (PAA). Cells were routinely maintained at densities of 0.2×10^6 cells per ml at 37° C. in a humidified 5% CO2, 95% air atmosphere. Cells were passaged twice a week, splitting back to obtain the low density. Cells were seeded in 96 well plates (Corning 3904) at 1×10^6 cells per ml media in a volume of 50 μl per well. Seeded cells were incubated at 37° C. in a humidified 5% CO2, 95% air atmosphere for 24 hours. Compounds were added (25 μl) to the cells and pre-incubated for 1 hour. 1 μg/ml DNA-damaging agent Neocarzinostatin (NCS) was added (25 μl) to a final volume of 100 μl and incubated for 2 hours at 37° C. in a humidified 5% CO2, 95% air atmosphere. After this period of time plates were removed from the incubator and the 100 μl dilutions were removed from the wells gently, prior to the addition of 75 μl cold RIPA lysis buffer with protease and phosphatase inhibitors to achieve the cells lysis, followed by shaking on a plate shaker at 4° C. for 30 minutes. At the end of this incubation, lysate was assessed for phospho-DNA-PK levels by sandwich immune-assay carried out in anti-mouse antibody coated MesoScale plates. […] Signal obtained in the wells containing blank samples was subtracted from all other wells and IC50 values were determined by fitting a sigmoidal curve to % inhibition of control versus Logo compound concentration.
As to `c1cnc2cc(N3CCOCC3)nc(OCC3CN(c4ncn[nH]4)C3)c2c1` [Parent compound 151], the IC50 was determined as 1.69 µM.

Consider `[2H]C1([2H])OC([2H])([2H])C([2H])([2H])N(c2cc3ncccc3c(O[C@H]3CC[C@@H](c4nc[nH]n4)CC3)n2)C1([2H])[2H]` [Example 65], for which the IC50 worked out at 0.21 µM.

With `Fc1cnc(NCC2CCN(c3nc(N4CCOCC4)cc4ncccc34)CC2)nc1` [Example 104], the IC50 came to 3.02 µM.

`Fc1ccnc(NCC2CCN(c3nc(N4CCOCC4)cc4ncccc34)CC2)c1` [Example 132]: the IC50 was 10.6 µM.

As for `c1cnc(N2CCC3CN(c4nc(N5CCOCC5)cc5ncccc45)CC32)nc1` (stereo not shown) [Example 17], the IC50 was found to be 4.45 µM. Consider `COc1ccnc(NCC2CCN(c3nc(N4CCOCC4)cc4ncccc34)CC2)n1` [Example 111], for which the IC50 came out at 2.14 µM. `Oc1cnc2cc(N3CCOCC3)nc(O[C@H]3CC[C@@H](c4nccs4)CC3)c2c1` [Example 168]: the IC50 is 0.272 µM. On to `F[C@H]1CN(c2ncn[nH]2)CC[C@@H]1Oc1nc(N2CCOCC2)cc2ncccc12` [Example 156], for which the IC50 was found to be 0.875 µM.

In the case of `CN1CC(CNc2nc(N3CCOCC3)cc3ncccc23)COC1=O` (stereo not shown) [Parent compound 150], the IC50 worked out at 1.92 µM. Still for that read-out and setting: next, `c1cnc2cc(N3CCOCC3)nc(O[C@H]3CC[C@@H](c4ncc[nH]4)CC3)c2c1` [Example 75]: 0.057 µM.

The values above are taken from patent US20230063457A1, “DNA-PK INHIBITING COMPOUNDS” (Provincial Health Services Authority, priority 2019, published 2023).
